The subject of this assay is Hepatocellular Carcinoma (HCC) and Intrahepatic Cholangiocarcinoma (ICC). Description: Exhaustive Cox proportional hazards (ECPH) model on real-world survival data of drug combination groups. The assay is classed as in vivo, human. To be noted: Cox PH.
The mark [1] stands for this setting: Sorafenib x Lenvatinib groups (Contingency Table A).
[2] abbreviates: Regorafenib x Lenvatinib groups (Contingency Table B).

The results in this text go back to patent US20230245787A1, “METHODS FOR PREDICTING SYNERGISTIC DRUG COMBINATION” (GenomiCare Biotechnology (Shanghai) Co., Ltd, priority 2020, published 2023).

Description: Then, a novel exhaustive Cox proportional hazards model (ECPH) model is used to evaluate all possible drug combinations with respect to their efficacy in prolonging patients' lives. In terms of efficacy, there can be three types of drug interaction: additive, synergistic, and antagonistic.
The approach used in the present disclosure further extends the CPH model. In an example process, drugs used for fewer than one treatment cycle or the number of patients in any variables less than 15 were removed. Then, a 2×2 contingency table is set up, in which rows are defined by every unique genomic or clinical variable, and the columns are defined by drug variable (See Table 3 as an illustration). Then the CPH model (as described in “The Robust Inference for the Cox Proportional Hazards Model”, D. Y. Lin &L. J. Wei, Journal of the Am. Stat. Assoc., pp. 1074-1078, 1989) is used to calculate independent risk factors, cumulative hazard-ratios, and p-values for each drug combination table.
Additive combination definition: The HR score of the drug A+ plus factor B+ group is between the other two treatment groups (A+B− and A−B+). The P-value of the drug A+ plus factor B+ group is not statistically significant compared with the other two treatment groups (A+B− and A−B+).
Synergistic combination definition: The HR score of the drug A+ plus factor B+ group is smaller than the other two treatment groups (A+B− and A−B+). […] The drug A+ plus factor B+ group is the statistically independent variable of the other two treatment groups (A+B− and A−B+).
In this example, data were collected and analyzed in the following steps:
(2) Real-world clinical electronic health records (EHRs) collection, clinical data entry and l long-term follow-up, according to the flowchart shown in FIG. 4.
(3) Comprehensive genomic data is matched with real-world treatment patterns and clinical outcomes feature database and analysis workflow, as shown in FIG. 5.
(4) A large one-hot encoding matrix(˜10,000*10,000) of comprehensive genomic and clinical factors. Based on the one-hot encoding matrix, the combined effects of all factors such as: age, gender, gene mutation, and drug treatment can be obtained.
(5) Applying exhaustive Cox proportional hazards model (ECPH) model
a. Patients are divided into four categories based on the combined use of the two drugs. For an example: Patients treated with Lenvatinib and without Sorafenib were defined as the Lenvatinib treatment group. Patients treated with Sorafenib and without Lenvatinib were defined as the Sorafenib treatment group. Patients treated with Sorafenib and Lenvatinib were defined as the Sorafenib-Lenvatinib treatment group. Patients treated without Sorafenib and Lenvatinib were defined as Sorafenib-Lenvatinib free treatment group.
b. 2×2 contingency tables were calculated for all possible drug combinations pairs: Millions of possible combinations of Lenvatinib.
c. Cox PH model (The Robust Inference for the Cox Proportional Hazards Model D. Y. Lin &L. J. Wei Pages 1074-1078) was used to calculate independent risk factors, cumulative hazard-ratios, and p-values for each drug combination table. […] It can be estimated as follow: h(t)=h0(t)×exp(b1x1+b2x2+ . . . +bpxp) where, • t represents the survival time. • h(t) is the hazard function determined by a set of p covariates (x1, x2, . . . , xp) • the coefficients (b1, b2, . . . , bp) measure the impact (i.e., the effect size) of covariates. • the term h0 is referred to the baseline hazard.

Consider `CNC(=O)c1cc(Oc2ccc(NC(=O)Nc3ccc(Cl)c(C(F)(F)F)c3)cc2)ccn1` [Sorafenib], for which, under setting [1], the “HR (hazard ratio)” value worked out at 0.76. As to `CNC(=O)c1cc(Oc2ccc(NC(=O)Nc3ccc(Cl)c(C(F)(F)F)c3)c(F)c2)ccn1` [Regorafenib], under setting [2], the “HR (hazard ratio)” value was 0.99. With `COc1cc2nccc(Oc3ccc(NC(=O)NC4CC4)c(Cl)c3)c2cc1C(N)=O` [Lenvatinib], the “HR (hazard ratio)” value was 1.00 (PD-1/PD-L1 x Lenvatinib groups (Contingency Table C), Chinese HCC and ICC patients); 0.74 under setting [2]; 0.56 under setting [1].
